The target in this assay is T1, recombinant human VDR (hVDR, vitamin D receptor) (Homo sapiens, UniProt P11473).
T1 sequence (P11473 1-427): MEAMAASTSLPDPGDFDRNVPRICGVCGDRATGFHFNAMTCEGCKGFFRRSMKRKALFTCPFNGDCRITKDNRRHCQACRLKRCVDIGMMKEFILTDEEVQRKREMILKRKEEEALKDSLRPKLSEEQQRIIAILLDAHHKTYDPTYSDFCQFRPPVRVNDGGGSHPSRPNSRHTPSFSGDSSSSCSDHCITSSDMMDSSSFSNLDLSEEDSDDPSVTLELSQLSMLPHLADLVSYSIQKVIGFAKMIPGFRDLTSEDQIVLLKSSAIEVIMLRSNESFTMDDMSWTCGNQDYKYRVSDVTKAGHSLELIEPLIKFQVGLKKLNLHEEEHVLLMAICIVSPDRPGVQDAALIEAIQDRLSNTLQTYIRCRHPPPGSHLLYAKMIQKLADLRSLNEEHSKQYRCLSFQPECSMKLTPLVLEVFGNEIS
Briefly: fluorescence polarization competition assay (PolarScreen). It is filed as binding. The conditions noted are these: read-out: 6. The text has this:
fluorescence polarization competition assay (PolarScreen) on recombinant human VDR (hVDR, vitamin D receptor)
(In general: In fluorescence polarisation assays a small probe gives low polarisation when free and higher when bound to something large.)

Each structure is given as a SMILES string. pIC50: −log10 of the molar value.

As for `C=C1[C@H](O)C(C)=C(C#CC2=CCCc3c2cccc3[C@H](C)CCCC(C)(C)O)C[C@H]1O` [compound 6, (1R,3S,1′′R)-5-[5′-(5′′-Hydroxy-1′′,5′′-dimethylhexyl)-3′,4′-dihydro-naphthalen-1′-ylethynyl]-4-methyl-2-methylene-cyclohex-4-ene-1,3-diol], the pIC50 was 7.55.
